What all share (assay type): in vivo, C57BL/6N mice
For assay [1], the system named is elastase-induced emphysema model (mice). Briefly: Immunoblotting and densitometry of SP-C in lung homogenates, elastase-induced emphysema. The following applies: preventive approach, LiCl 200 mg/kg/day i.p. day 0-7; vehicle 0.36±0.06; p=0.0231. As to the method:
(§1) Six- to eight-week-old pathogen-free female C57BL/6N mice (Charles River Laboratories) were used throughout this study. All experiments were performed in accordance with the guidelines of the Ethics Committee of the University of Giessen School of Medicine and approved by the Regierungspräsidium Giessen, Hesse, Germany. Mice had free access to water and rodent laboratory chow. Pancreatic elastase was dissolved in sterile PBS and applied orotracheally (100 U/kg BW). Control mice received 80 μl sterile PBS. Lung tissues were excised and snap-frozen or inflated with 4% (m/v) paraformaldehyde in PBS (PAA Laboratories) at 21 cm H2O pressure for histological analyses.
The WNT/β-catenin signaling pathway in lungs from C57BL/6N mice was activated via intraperitoneal injection of lithium chloride (200 mg/KG/BW/day) (22). Lithium chloride mimics members of the WNT family of signalling proteins by inhibiting the activity of GSK-3β and thus causes intracellular accumulation of β-catenin, a feature associated with the canonical WNT/β-catenin signalling pathway (23). Under these circumstances, β-catenin can enter the nucleus and influence the expression of target genes. Lithium chloride was diluted in sterile water and fresh stock was prepared for every injection. […]
Background: In western blotting, separated proteins are transferred to a membrane and probed.

Assay [2] shares this test system. Briefly: Histological and immunohistochemical assessment of lung sections, elastase-induced emphysema. As to the method: as §1
(§2) The WNT/β-catenin signaling pathway in lungs from C57BL/6N mice was activated via intraperitoneal injection of lithium chloride (200 mg/KG/BW/day) (22). Lithium chloride mimics members of the WNT family of signalling proteins by inhibiting the activity of GSK-3β and thus causes intracellular accumulation of β-catenin, a feature associated with the canonical WNT/β-catenin signalling pathway (23). Under these circumstances, β-catenin can enter the nucleus and influence the expression of target genes. Lithium chloride was diluted in sterile water and fresh stock was prepared for every injection. Mice were treated on a daily basis, from day 0, the day of elastase subjection to day 7 in the preventive regime, and from day 7 to 14 in the therapeutic regime, respectively. The following scheme illustrates preventive and therapeutic activation of WNT/β-catenin signaling in experimental emphysema:
Mice were subjected to a single orotracheal application of elastase, which led to the development of pulmonary emphysema from day 1 to 14. WNT/β-catenin activation by treatment with lithium chloride (LiCl) was initiated on day of elastase subjection to day 7 (referred to as preventive approach), or from day 7 to day 14 (referred to as therapeutic approach), using the indicated concentrations (daily application intraperitonal (i.p.), n=6 for each group). […]

For assay [3] the test system is unchanged. Briefly: qRT-PCR of ECM and alveolar epithelial cell markers in lungs, elastase-induced emphysema. The following applies: preventive approach, day 7. Here is the method:
as §1, §2
Mice were subjected to a single orotracheal application of elastase, which led to the development of pulmonary emphysema from day 1 to 14. WNT/β-catenin activation by treatment with lithium chloride (LiCl) was initiated on day of elastase subjection to day 7 (referred to as preventive approach), or from day 7 to day 14 (referred to as therapeutic approach), using the indicated concentrations (daily application intraperitonal (i.p.), n=6 for each group).
Total RNA was extracted using Qiagen extraction kits according to the manufacturer's protocol, and cDNAs were generated by reverse transcription using SuperScript™ II (Invitrogen). Quantitative (q)RT-PCR was performed using fluorogenic SYBR Green and the Sequence Detection System Fast 7500 (PE Applied Biosystems). HPRT1 and PBGD, ubiquitously and equally expressed genes free of pseudogenes, were used as a reference gene in all human and mouse qRT-PCR reactions, respectively. PCR was performed using the primers listed in Table 1 and 2, respectively, at a final concentration of 200 nM. Relative transcript abundance of a gene is expressed in ΔCt values (ΔCt=ct^reference−Ct^target). Relative changes in transcript levels compared to controls are ΔΔCt values (ΔΔCt=ΔCt^treated−ΔCt^control). All ΔΔCt values correspond approximately to the binary logarithm of the fold change as mentioned in the text. When relative transcript abundance is of information, expression levels are given in ΔCt levels.
(In general: Quantitative PCR measures a nucleic acid by following its amplification.)

The test system is the same in assay [4]. Briefly: Quantitative morphometry of lung structure in elastase-induced emphysema. Here is the method:
as §1
The WNT/β-catenin signaling pathway in lungs from C57BL/6N mice was activated via intraperitoneal injection of lithium chloride (200 mg/KG/BW/day) (22). […]
To assess air space enlargement, the mean chord length (MCL) was quantified by superimposing a line grid on the images of lung sections at a magnification of 200×. Points on the lines of the grid hitting the air spaces, and intercepts of the lines with alveolar septa were counted to calculate MCL according to the formula: MCL=ΣPair×L(p)/(Isepta/2) (μm), where ΣPair is the sum of the points of the grid overlaid air spaces, L(p) is the line length per point and Isepta is the sum of the intercepts of alveolar septa with the lines of the grid. For the morphometric assessment of alveolar surface area per unit volume of lung parenchyma (Sv) were determined by counting the number of points that fell on alveolar septal tissue and alveolar space, and by counting the number of intercepts with alveolar septal surface at a magnification of 200× according to the following formulas: Sv=2×Isepta/(ΣPpar×L(p)/3) (1 μm), where ΣPpar is the sum of the points of hitting parenchyma, L(p) is the line length per test point in μm, and Isepta the sum of the intercepts with alveolar septa.

Assay [5] has the same test system. Briefly: Collagen assay (Sircol) in whole-lung homogenates, elastase-induced emphysema. The following applies: preventive approach, LiCl 200 mg/kg/day i.p. day 0-7; vehicle 29.6±4.1; p=0.042. Here is the method:
as §1
The WNT/β-catenin signaling pathway in lungs from C57BL/6N mice was activated via intraperitoneal injection of lithium chloride (200 mg/KG/BW/day) (22). Lithium chloride mimics members of the WNT family of signalling proteins by inhibiting the activity of GSK-3β and thus causes intracellular accumulation of β-catenin, a feature associated with the canonical WNT/β-catenin signalling pathway (23). […]
Whole-mouse lung homogenates were used for in vivo analysis. Total collagen content was determined using the Sircol Collagen Assay kit (Biocolor). […] Samples and collagen standards were then read at 540 nm in a spectrophotometer (Bio-Rad). Collagen concentrations were calculated using a standard curve with acid-soluble type I collagen.

The record followed here is patent US20130071495A1, “INHIBITORS OF GLYCOGEN SYNTHASE KINASE 3 FOR USE IN THERAPEUTIC METHODS AND SCREENING METHOD RELATING THERETO” (Helmholtz Zentrum Muenchen Deutsches Forschungszentrum fuer …, priority 2010, published 2013).

For the compound `[Cl-].[Li+]` [LiCl, Lithium chloride], in assay [1], the “SP-C protein expression (immunoblot densitometry)” value turned out to be 0.62±0.05. In addition, the “immunohistochemical staining for SP-C, WNT3a and β-catenin” value in assay [2] (preventive approach, compared with vehicle-treated mice) is reported as “increased appearance of SP-C-positive cells with enhanced staining of the WNT/β-catenin signaling component WNT3a as well as nuclear β-catenin staining”. Besides, the “histological assessment of the lung structure” value in assay [2] (preventive approach, day 0-7, H&E staining) is reported as “marked attenuated emphysematous changes”; in assay [2] (therapeutic approach, day 7-14, H&E staining), “marked attenuation of emphysema along with restored lung architecture”. Also, the “cadherin 1 (cdh1) mRNA, log-fold change LiCl-treated versus untreated lungs” value in assay [3] (p=0.003) was 0.97±0.20. In addition, the “aquaporin 5 (aqp5) mRNA, log-fold change LiCl-treated versus untreated lungs” value in assay [3] (p=0.025) is reported as 0.63±0.18. The “thyroid transcription factor 1 (ttf1) mRNA, log-fold change LiCl-treated versus untreated lungs” value in assay [3] (p=0.033) amounted to 1.20±0.30. The “SP-C mRNA, log-fold change LiCl-treated versus untreated lungs” value in assay [3] (p=0.0475) is −1.21±0.42. For the same compound, the “mRNA of type I collagen α1 (col1a1), log-fold change LiCl-treated versus untreated lungs” value in assay [3] (p=0.0496) is given as −0.86±0.33. Further, the “forkhead box P2 (foxp2) mRNA, log-fold change LiCl-treated versus untreated lungs” value in assay [3] (p=0.146) is listed as 1.38±0.59. Further, the mean chord length is 74.0±6.6 μm in assay [4] (preventive approach, LiCl 200 mg/kg/day i.p. day 0-7, vehicle 109.9±7.8, p=0.0021) and 85.3±2.5 in assay [4] (therapeutic approach, LiCl 200 mg/kg/day i.p. day 7-14, vehicle 106.4±2.3, p=0.021). In assay [4] (preventive approach, LiCl 200 mg/kg/day i.p. day 0-7, vehicle 317.8±27.5, p=0.0067), this compound returned a surface area of 560.7±55.7 cm^2. The “total collagen content in lung homogenates” value in assay [5] amounted to 16.1 µg/mL.
